The test system of experiment [1] is memory loss induced by an acute administration of scopolamine (ESC). Nature of the experiment: Morris water maze, two-day protocol, acute ESC model. Conditions: long-term spatial memory. The format is in vivo, mice. As for the experimental part: Young male OF-1 mice (20-25 g), supplied by the National Center for the Laboratory Animals Production (CENPALAB, Cuba), were used. Before the experiment, the animals were adapted for seven days to laboratory conditions (controlled temperature 25±2° C., relative humidity 60±10% and light/dark cycles of 12 h). During this period, and during the experiment, the animals received ad libitum water and a standard diet for rodents supplied by CENPALAB. All procedures were carried out in accordance with the European Commission guidelines for the use and care of laboratory animals and approved by the Committee for the Care of Research Animals. The minimum number of animals and duration of observations required to obtain consistent data was used.
At the end of the adaptation period, the animals were randomly distributed according to their body weights in 5 experimental groups of 12 animals per group. […]
The experience was carried out for two days; a first day of training and a second day of testing. […] 24 hours after the last visible platform test (D2), the animals were evaluated in a series of three tests with the hidden platform (T1-T3). […]
All data are expressed as the mean±standard error of the mean (SEM). The Morris water maze data was analyzed in two ways. Escape latencies in the visible platform training phase were analyzed using a two-factor ANOVA (treatment×trial). […]

For experiment [2], the system named is amnesia induced by the acute administration of scopolamine. Briefly: Object discrimination test, intranasal administration, acute ESC. Conditions: nasal formulation, single intranasal dose (74 μg/kg); ESC 1.5 mg/kg ip; vs control groups. The format is in vivo, mice. The source says: Male C57BL/6 mice (20-25 g), supplied by the National Center for the Laboratory Animals Production (CENPALAB, Cuba) were used. The conditions of adaptation and maintenance of the animals before carrying out the experiment were similar to those developed in non-limiting Example 4.
At the end of the adaptation period, the animals were randomly distributed according to their body weights in four experimental groups of 10 animals each: two healthy control groups, one administered with a vehicle via the nasal route (G1) and the other with saline solution via. ip (G2); a sick control group, administered with nasal saline and then, with ESC dissolved in saline solution (1.5 mg/kg, ip) (G3) and a treated group, administered with compound 3 prepared according to the formulation of non-limiting Example 10 and after 15 minutes the ESC is administered (1.5 mg/kg, ip) (G4). This experiment was carried out in two experimental series under the same conditions described in order to study the effects of the nasal formulation of compound 3 in two behavioral models: Y-maze in the hidden arm modality and the object discrimination model. […]
The Object Recognition Test (ORT) is a commonly used behavioral test for the investigation of various aspects of learning and memory, particularly recognition memory, in rodent models of CNS disorders. […] The behavior of the animal was recorded using a video camera. […]

This note sets out measurements from patent US20240299334A1, “PHARMACEUTICAL COMPOSITION OF NAPHTHALENE DERIVATIVES AS MULTI-TARGETED THERAPEUTIC AGENTS FOR THE TREATMENT OF ALZHEIMER'S DISEASE” (CENTRO DE NEUROCIENCIAS DE CUBA, CNEURO, priority 2020, published 2024).

In the case of `CSC(=S)NCCNC(=O)CCC(=O)Nc1cccc2ccccc12` [compound 3, methyl(2-{[4-(1-naphthylamino)-4-oxobutanoyl]amino}ethyl)dithiocarbamate], in experiment [1], the “difference and ratio of escape latency, last visible-platform test vs first hidden-platform test” value is listed as “differs significantly from the group with ESC”. Also, in experiment [2], the “discrimination index (DI) of the novel object” value is recorded as “No significant differences were observed in the discrimination index”.
